Data as given in paper PMC11204507, “Mechanistic Insights into the Neurotoxicity of 2,5-Dimethoxyphenethylamines (2C) and Corresponding N-(2-methoxybenzyl)phenethylamine (NBOMe) Drugs” (Journal of Xenobiotics, 2024).

Tests used:
[1] = system: primary rat cortical cultures; test: Neutral red (NR) uptake cytotoxicity assay; assay type: cell-based; conditions: for Bottom (baseline, % control) / Top (maximal cell death, % control): fitted NR curve, primary rat cortical neurons, 24 h; for EC50: primary rat cortical cultures, 24 h of exposure, mean (95% CI)
Method: Female Wistar rats were obtained from Charles River Laboratories. The animals were allowed free access to rat chow and water, being maintained on a 12 h/12 h light/dark cycle, under controlled temperature (20 ± 2 °C) and humidity (40–60%). Primary cortical cultures were prepared as previously described. Briefly, for embryo collection, the pregnant female Wistar rats were anesthetized with isoflurane and subsequently administered ketamine and xylazine (200 + 100 μL, intraperitoneal). At the end of the dissection procedures, the female rat was euthanized with the administration of sodium pentobarbital ([…]). The embryos were used between embryonic day 16 (E16) and E19, considering the mating day as E0. The embryos were dissected from the uterus, and the heads were decapitated and placed in ice-cold 0.1 M PBS supplemented with 0.6% (w/v) glucose. The cortex dissection was performed under a Zeiss stereo microscope (Stemi DV4). Following trypsinization (0.05% trypsin/EDTA) and DNAse I treatment, the tissue pieces were mechanically dissociated, and the cells seeded in freshly prepared neurobasal medium (supplemented with 2% B-27, 100 U/mL of penicillin, 100 μg/mL of streptomycin, and 1% GlutaMAX^TM supplement) at a density of 150,000 cells/cm^2 in 96-well plates precoated, overnight, with 0.05 mg/mL PLL solution (prepared in 0.1 M borate buffer, pH 8.5). The cultures were maintained at 37 °C in a 5% CO2 air atmosphere. The medium was renewed at 4 days in vitro (DIV) by replacing half of the volume with fresh medium, and the cultures were used at 8 DIV.
The differentiated SH-SY5Y cells (25,000 cells/cm^2) and primary rat cortical cultures (150,000 cells/cm^2) were seeded onto 96-well plates as previously described.
Accordingly, 6 days after seeding (differentiated SH-SY5Y cells) or at 8 DIV (primary cultures), the cells were exposed, for 24 h (37 °C, 5% CO2), to different concentrations of the drugs (0–1000 µM). Thus, the tested concentrations ranged from 0 to 1000 µM for 2C-T-2 and 2C-T-4; 0 to 500 µM for 2C-T-7; 0 to 250 µM for 25T2-NBOMe, and 0 to 100 µM for 25T4-NBOMe and 25T7-NBOMe.
The NR uptake assay is based on the detection of viable cells through the incorporation of the NR dye by the cell’s lysosomes. In brief, after 24 h of exposure to the tested drugs, the differentiated SH-SY5Y cells and primary rat cortical cultures were incubated with NR (50 µg/mL in complete medium) for 90 or 210 min, respectively, at 37 °C, in a 5% CO2-95% air atmosphere. To extract the absorbed dye, an acidified ethanol solution was used, and the absorbance was then measured at 540 nm in a multi-well plate reader (PowerWaveX, BioTek Instruments, Winooski, VT, USA). The cytotoxicity was estimated by the percentage of NR uptake relative to the control cells, and a minimum of 4 independent experiments were conducted in triplicate.

[2] = system: differentiated SH-SY5Y cells; test: Total glutathione (tGSH) levels, DTNB-GSH recycling assay; assay type: cell-based, human; conditions: control 100.0%
Text: Glutathione has a critical role in cellular physiology, playing multiple essential roles in maintaining cellular health and function, including antioxidant defense, detoxification, and cellular signaling. The 5,5′-dithiobis(2-nitrobenzoic acid) (DTNB)-GSH recycling assay was used to measure total GSH (tGSH), which includes the reduced (GSH) and oxidized (GSSG) forms of glutathione. The assay relies on the reaction of GSH with DTNB, producing the yellow-colored 5-thio-2-nitrobenzoic acid (TNB). Thus, the TNB generated is directly proportional to the amount of GSH present in the sample [31].
Thus, the SH-SY5Y cells were seeded onto 6-well plates (25,000 cells/cm^2) following the previously described seeding and differentiation protocol. On the day of the experiment, the cells were exposed to different concentrations of the tested drugs (EC20 and EC50) for 24 h (37 °C, 5% CO2). At the end of the incubation period, the cells were centrifuged (5 min, 250 g, 4 °C). For the analysis of extracellular GSH levels, the supernatants were collected, and proteins precipitated with 30% HClO4 for at least 30 min (4 °C). For the analysis of intracellular GSH levels, after collecting the supernatants, the cells were treated with 5% HClO4 for at least 30 min (4 °C). Subsequently, the acidic samples were collected from the plates and centrifuged (5 min, 16,000× g, 4 °C), and the supernatants were stored until further analysis (−80 °C). To assess protein content, the pellets were resuspended in 1M NaOH, maintained at 4 °C overnight, and stored until further analysis (−20 °C). A Bio-Rad DC™ protein assay kit (Bio-Rad Laboratories, Hercules, CA, USA) was used to analyze protein content, in accordance with the manufacturer’s guidelines.
Before the tGSH quantification, the acidic samples were diluted (1:2) with 5% HClO4, and the diluted samples/standards were neutralized with an ice-cold KHCO3 solution (1:1) and centrifuged (5 min, 16,000× g, 4 °C).
Then, 100 µL of supernatant from each sample/standard was transferred into a 96-well plate and 65 µL of an extemporaneous reagent solution (0.68 mM NADPH and 3.96 mM DTNB prepared in a 7.5 pH phosphate buffer) was added to each well, and the plates were incubated for 15 min at 30 °C. After 15 min, 40 μL of a 10 U/mL glutathione reductase solution was added to each well and the formation of 5-thio-2-nitrobenzoic acid (TNB) was monitored every 10 s for 3 min (kinetic mode) at 415 nm in a multi-well plate reader (PowerWaveX, BioTek Instruments, Winooski, VT, USA).
The GSH levels were standardized to protein content. The results are presented as a percentage relative to the control cells (0 µM). A minimum of 6 independent experiments were conducted, in duplicate.
Glutamate/cysteine ligase (GCL), also recognized as gamma-glutamylcysteine synthetase (γ-GCS), is a key enzyme in the first step of glutathione biosynthesis, as it catalyzes the reaction between glutamate and cysteine to produce γ-glutamylcysteine. […] The SH-SY5Y cells were seeded onto 6-well plates (25,000 cells/cm^2) following the previously described seeding and differentiation protocol. On the day of the experiment, the cells were incubated with BSO (100 µM) for 24 h (37 °C, 5% CO2) and the quantification of GSH intracellular levels was achieved according to the previously described method in Section 2.11.

`COc1cc(SC(C)C)c(OC)cc1CCNCc1ccccc1OC.Cl` [25T4-NBOMe, 2-(4-(isopropylthio)-2,5-dimethoxyphenyl)-N-(2-methoxybenzyl)ethan-1-aminium chloride] was tested, and the “Bottom (baseline, % control)” value [1] was 2.059 % control, the “Top (maximal cell death, % control)” value [1] was 83.51 % control and the EC50 [1] was 19.9 µM. For the same molecule, the “intracellular tGSH levels, % of control cells” value (“intracellular tGSH levels, %” below) ([2]; drug at its EC20, 24 h) was 71.2% and the “intracellular tGSH levels, %” value ([2]; drug at its EC50, 24 h) was 60.3%.
For `CCCSc1cc(OC)c(CCN)cc1OC.Cl` [2C-T-7, 2-(2,5-dimethoxy-4-(propylthio)phenyl)ethan-1-aminium chloride], the “Bottom (baseline, % control)” value [1] was 1.452 % control, the “Top (maximal cell death, % control)” value [1] was 84.63 % control and the EC50 [1] was 73.6 µM. For the same molecule, the “intracellular tGSH levels, %” value ([2]; drug at its EC20, 24 h) was 84.2% and the “intracellular tGSH levels, %” value ([2]; drug at its EC50, 24 h) was 82.4%.
`COc1cc(SC(C)C)c(OC)cc1CCN.Cl` [2C-T-4, 2-(4-(isopropylthio)-2,5-dimethoxyphenyl)ethan-1-aminium chloride] was tested, and the “Bottom (baseline, % control)” value [1] was 0.7855 % control, the “Top (maximal cell death, % control)” value [1] was 82.56 % control and the EC50 [1] was 110 µM. For the same molecule, the “intracellular tGSH levels, %” value ([2]; drug at its EC20, 24 h) was 81.4% and the “intracellular tGSH levels, %” value ([2]; drug at its EC50, 24 h) was 75.8%.
In the case of `CCSc1cc(OC)c(CCN)cc1OC.Cl` [2C-T-2, 2-(4-(ethylthio)-2,5-dimethoxyphenyl)ethan-1-aminium chloride], the “Bottom (baseline, % control)” value [1] is reported as 1.639 % control, the “Top (maximal cell death, % control)” value [1] is reported as 83.85 % control and the EC50 [1] is reported as 216 µM. For the same molecule, the “intracellular tGSH levels, %” value ([2]; drug at its EC20, 24 h) was 87.0% and the “intracellular tGSH levels, %” value ([2]; drug at its EC50, 24 h) was 80.0%.
In the case of `CCSc1cc(OC)c(CCNCc2ccccc2OC)cc1OC.Cl` [25T2-NBOMe, 2-(4-(ethylthio)-2,5-dimethoxyphenyl)-N-(2-methoxybenzyl)ethan-1-aminium chloride], the “Bottom (baseline, % control)” value [1] is reported as 3.637 % control, the “Top (maximal cell death, % control)” value [1] is reported as 81.45 % control and the EC50 [1] is reported as 26.5 µM. For the same molecule, the “intracellular tGSH levels, %” value ([2]; drug at its EC20, 24 h) was 54.4% and the “intracellular tGSH levels, %” value ([2]; drug at its EC50, 24 h) was 49.2%.
With `CCCSc1cc(OC)c(CCNCc2ccccc2OC)cc1OC.Cl` [25T7-NBOMe, 2-(2,5-dimethoxy-4-(propylthio)phenyl)-N-(2-methoxybenzyl)ethan-1-aminium chloride] the “Bottom (baseline, % control)” value [1] was 3.972 % control, the “Top (maximal cell death, % control)” value [1] was 82.95 % control and the EC50 [1] was 14.4 µM. The “intracellular tGSH levels, %” value ([2]; drug at its EC20, 24 h) was 72.2% and the “intracellular tGSH levels, %” value ([2]; drug at its EC50, 24 h) was 52.0%.
